Assay results: the supplement of paper PMC10331698
± gives the standard deviation of the averaged measurements.

Experiments:
Experiment in all cases: level (log10 ratio to DMSO vehicle control); higher = higher biomarker level / cell amount than vehicle control
Conditions in all cases: in DMSO
[1] = compound: C=C(C)C(=O)OCC(F)(F)C(F)(F)C(F)(F)C(F)(F)C(F)(F)C(F)(F)C(F)(F)F
Description: (§1)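 BioMAP Diversity Plus panel of 12 human primary cell co-culture systems (3C, 4H, LPS, SAg, BT, BF4T, BE3C, CASM3C, HDF3CGF, KF3CT, MyoF, Mphg). Compounds were added 1 h before stimulation and left for 24 h (MyoF 48 h; BT 72 h for soluble read-outs or 6 d for IgG). Biomarkers were read by ELISA, cytotoxicity by SRB, PBMC viability and proliferation by Alamar Blue. Each well value was divided by the mean of 8 DMSO control wells on the same plate and log10 transformed; duplicate blinded samples were tested at 4 concentrations.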

Azathioprine = compound: Cn1cnc([N+](=O)[O-])c1Sc1ncnc2[nH]cnc12 [Azathioprine]
Description: as §1

1H,1H-Heptafluorobutanol = compound: OCC(F)(F)C(F)(F)C(F)(F)F [1H,1H-Heptafluorobutanol]
Description: as §1

[2] = compound: O=C(O)C(F)(F)C(F)(F)C(F)(F)C(F)(F)C(F)(F)C(F)(F)C(F)(F)C(F)(F)C(F)(F)C(F)(F)C(F)(F)C(F)(F)C(F)(F)F [Perfluorotetradecanoic acid]
Description: as §1

[3] = compound: O=C(O)C(F)(F)OC(F)(F)C(F)(F)OC(F)(F)C(F)(F)C(F)(F)C(F)(F)F [Perfluoro-3,6-dioxadecanoic acid]
Description: as §1

[4] = compound: O=C(O)CCC(F)(F)C(F)(F)C(F)(F)F [3:3 Fluorotelomer carboxylic acid]
Description: as §1

1-(Perfluorohexyl)octane = compound: CCCCCCCCC(F)(F)C(F)(F)C(F)(F)C(F)(F)C(F)(F)C(F)(F)F [1-(Perfluorohexyl)octane]
Description: as §1

Row | Test System | level (log10) ([1]; 6700 nM) | level (log10) ([1]; 20000 nM) | level (log10) (Azathioprine; 1400 nM) | level (log10) (Azathioprine; 4200 nM) | level (log10) (Azathioprine; 13000 nM) | level (log10) (Azathioprine; 38000 nM) | level (log10) (1H,1H-Heptafluorobutanol; 6700 nM) | level (log10) (1H,1H-Heptafluorobutanol; 20000 nM) | level (log10) (1H,1H-Heptafluorobutanol; 60000 nM) | level (log10) ([2]; 6700 nM) | level (log10) ([2]; 20000 nM) | level (log10) ([3]; 6700 nM) | level (log10) ([3]; 20000 nM) | level (log10) ([3]; 60000 nM) | level (log10) ([4]; 6700 nM) | level (log10) ([4]; 20000 nM) | level (log10) ([4]; 60000 nM) | level (log10) (1-(Perfluorohexyl)octane; 6700 nM) | level (log10) (1-(Perfluorohexyl)octane; 20000 nM)
1 | MyoF:alpha-SM Actin | 0.0085 ± 0.022 | -0.0005 ± 0.0092 | 0.037 ± 0.095 | 0.039 ± 0.071 | 0.002 ± 0.078 | -0.0365 ± 0.1 | 0.0105 ± 0.0064 | -0.0045 ± 0.0078 | -0.004 ± 0.02 | -0.008 | -0.032 ± 0.0085 | -0.0155 ± 0.039 | -0.0235 ± 0.018 | -0.05 ± 0.014 | -0.011 ± 0.045 | 0.002 ± 0.023 | -0.0055 ± 0.013 | -0.0125 ± 0.032 | -0.0095 ± 0.0078
2 | MyoF:bFGF | 0.005 ± 0.016 | 0.015 ± 0.025 | 0.001 ± 0.016 | 0.003 ± 0.0071 | -0.015 ± 0.016 | 0.01 ± 0.0071 | -0.003 ± 0.0042 | 0.0045 ± 0.0078 | 0.01 ± 0.017 | 0.0075 ± 0.00071 | 0.0315 ± 0.018 | 0.013 ± 0.02 | 0.003 ± 0.0057 | 0.02 ± 0.011 | 0.0025 ± 0.0021 | 0.0025 ± 0.0092 | 0.0085 ± 0.0092 | -0.0025 ± 0.012 | 0.0045 ± 0.005
3 | lMphg:CCL2/MCP-1 | -0.009 ± 0.021 | 0.008 ± 0.02 | 0.0055 ± 0.025 | -0.0005 ± 0.0092 | -0.0315 ± 0.0078 | -0.0755 ± 0.011 | -0.01 ± 0.0042 | -0.0075 ± 0.015 | -0.0295 ± 0.012 | -0.013 ± 0.014 | -0.004 ± 0.0099 | -0.024 ± 0.037 | -0.0225 ± 0.023 | -0.0435 ± 0.0092 | -0.012 ± 0.02 | -0.01 ± 0.018 | 0.017 ± 0.02 | -0.0225 ± 0.022 | 0.0065 ± 0.025
4 | lMphg:CCL3/MIP-1alpha | -0.032 ± 0.0028 | 0.007 ± 0.045 | -0.0005 ± 0.00071 | -0.0235 ± 0.021 | -0.0225 ± 0.03 | -0.0975 ± 0.029 | 0.0015 ± 0.019 | -0.003 ± 0.037 | -0.0035 ± 0.0021 | -0.02 ± 0.042 | -0.004 ± 0.02 | -0.022 ± 0.064 | -0.0215 ± 0.049 | -0.0545 ± 0.054 | -0.0105 ± 0.047 | -0.027 ± 0.047 | 0.002 ± 0.02 | -0.022 ± 0.021 | 0.0035 ± 0.021
5 | lMphg:CD40 | -0.0265 ± 0.0064 | -0.025 ± 0.0042 | -0.0125 ± 0.04 | -0.0205 ± 0.013 | -0.025 ± 0.0014 | -0.106 ± 0.03 | 0.0045 ± 0.025 | -0.0125 ± 0.059 | -0.0105 ± 0.029 | -0.0405 ± 0.036 | -0.031 ± 0.014 | 0.002 ± 0.047 | -0.0175 ± 0.035 | -0.102 ± 0.023 | -0.0195 ± 0.064 | -0.028 ± 0.067 | 0.0065 ± 0.018 | -0.0185 ± 0.011 | -0.023 ± 0.021
6 | lMphg:CD62E/E-Selectin | -0.0215 ± 0.0021 | -0.021 ± 0.0042 | -0.037 ± 0.045 | -0.031 ± 0.048 | -0.064 ± 0.0085 | -0.148 ± 0.051 | -0.0085 ± 0.021 | 0.001 ± 0.017 | 0 ± 0.045 | 0.0125 ± 0.03 | -0.006 ± 0.044 | 0.0095 ± 0.016 | -0.0035 ± 0.037 | 0.0135 ± 0.015 | 0.014 ± 0.025 | 0.028 ± 0.023 | 0.0435 ± 0.023 | 0.0205 ± 0.012 | -0.0145 ± 0.03
7 | lMphg:CD69 | -0.0135 ± 0.018 | -0.004 ± 0.038 | 0.027 ± 0.013 | -0.0205 ± 0.029 | -0.004 ± 0.0028 | 0.022 ± 0.011 | -0.0555 ± 0.066 | -0.052 ± 0.098 | -0.0465 ± 0.066 | -0.02 ± 0.038 | -0.007 ± 0.089 | -0.0505 ± 0.021 | -0.0425 ± 0.0021 | -0.196 ± 0.063 | 0.013 ± 0.013 | 0.053 ± 0.047 | 0.035 ± 0.037 | -0.0265 ± 0.0078 | -0.0345 ± 0.015
8 | lMphg:CD106/VCAM-1 | -0.0385 ± 0.0035 | -0.0535 ± 0.026 | 0 ± 0.0057 | -0.003 ± 0.0085 | -0.036 | -0.0835 ± 0.025 | -0.001 | 0.008 ± 0.0028 | 0.01 ± 0.0085 | -0.0325 ± 0.028 | -0.017 ± 0.0014 | -0.004 ± 0.018 | -0.0055 ± 0.021 | -0.0585 ± 0.039 | 0.002 ± 0.013 | 0.009 ± 0.0014 | 0.0045 ± 0.013 | -0.0105 ± 0.012 | -0.035 ± 0.017
